What follows are compounds tested against T1, human GnRH receptor (Homo sapiens, UniProt P30968) (assay: peptide competitive human receptor binding assays (radioligand displacement)). Conditions: tested in one or more of the peptide competitive human receptor binding assays.
T1 construct: expressed in transfected cells; membrane preparations
T1 sequence (P30968 1-328): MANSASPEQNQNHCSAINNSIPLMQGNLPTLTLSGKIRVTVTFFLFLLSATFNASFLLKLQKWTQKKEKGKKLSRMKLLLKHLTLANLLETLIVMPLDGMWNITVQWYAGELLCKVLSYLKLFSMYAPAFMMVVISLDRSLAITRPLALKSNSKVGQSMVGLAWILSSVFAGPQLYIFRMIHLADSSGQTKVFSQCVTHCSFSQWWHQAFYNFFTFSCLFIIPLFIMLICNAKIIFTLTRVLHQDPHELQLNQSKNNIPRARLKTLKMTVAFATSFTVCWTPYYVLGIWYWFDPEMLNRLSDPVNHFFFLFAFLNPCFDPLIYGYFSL
Method: HEK293 cells stably transfected with the human GnRH receptor are grown for two days after achieving confluence then are harvested by striking tissue culture flasks against a firm surface. Cells are collected by centrifugation at 1000 g for […]. Cell pellets are resuspended in 5% sucrose and homogenized using a polytron homogenizer for two 15 second homogenization steps. Cell homogenates are then centrifuged for 5 minutes at 3000 g to remove nuclei and the supernatant subsequently centrifuged for 30 minutes at 44,000 g to collect the membrane fraction. The membrane pellet is resuspended in GnRH binding buffer (10 mM HEPES, pH 7.5, 150 mM NaCl and 0.1% BSA) and aliquots immediately snap-frozen in liquid nitrogen and stored at −80° C. Protein content of the membrane suspension is determined using the Bio-Rad protein assay kit (Bio-Rad).
RBL cells stably transfected with the human GnRH receptor are grown to 80% confluency prior to harvesting. The cells are incubated at 37° C. for 10 min in 0.5 mM EDTA/PBS (Ca^++, Mg^++ free), and are dislodged from the plate by gentle rapping of the flasks. Cells are collected and pelleted by centrifugation at 1000 g for 5 minutes. Cell pellets are resuspended in buffer (DPBS supplemented with 10 mM MgCl2, 2 mM EGTA, pH=7.4), and cell lysis is performed using a pressure cell and applying N2 at a pressure of 900 psi for 30 min at 4° C. Unbroken cells and larger debris were removed by centrifugation at 1200 g for 10 min at 4° C. The cell membrane supernatant is then centrifuged at 45,000 g and the resulting membrane pellet is resuspended in assay buffer and homogenized on ice using a tissue homogenizer. Protein concentrations are determined using the Coomassie Plus Protein Reagent kit. Membranes are aliquoted and stored at −80° C. until ready for use.
Radioligand binding displacement assays using the peptide radioligands are performed in buffer containing 10 mM HEPES, 150 mM NaCl and 0.1% BSA, pH=7.5. Radioligand binding assays employing the use of [^3H]-1-(2,6-difluorobenzyl)-3-[(2R)-amino-2-phenethyl]-5-(2-fluoro-3-methoxyphenyl)-6-methyluracil (here the 3-methoxy group is tritiated) are run in buffer containing 50 mM Tris, 150 mM NaCl, 5 mM MgCl2, 0.01% saponin and 0.5 mM EDTA, pH=7.5. Radioligand displacement assays are performed by incubating radioligand ([^125I-Tyr^5, DLeu^6, NMeLeu^7, Pro^9-NEt]GnRH (0.1 nM), [His^5, ^125I-DTyr^6]GnRH (0.2 nM) (31) or [^3H]-1-(2,6-difluorobenzyl)-3-[(2R)-amino-2-phenethyl]-5-(2-fluoro-3-methoxyphenyl)-6-methyluracil (1 nM)), unlabeled competitors at concentrations ranging from 0.3 pM to 10 μM, and membranes for 2 hrs at rt. 10 to 20 μg protein/well is used from membrane preparations for human, monkey and rabbit GnRH receptor. 5 μg/well and 60 μg/well of membranes are used for rat and dog GnRH receptors, respectively. Binding assays are performed in either Millipore 96-well GF/C filtration plates (for ([^125I-Tyr^5, DLeu^6, NMeLeu^7, Pro^9-NEt]GnRH assays), or in 96 well low binding plates, which are subsequently filtered onto GF/C Unifilters. Filters are pretreated with 0.5% PEI for 30 min prior to use. Reactions are terminated by rapid vacuum filtration, and the filters are washed twice with 250 μL ice cold PBS pH=7.4 (0.01% Tween-20 is included in wash media for [His^5, ^125I-DTyr^6]GnRH and [^3H]-1-(2,6-difluorobenzyl)-3-[(2R)-amino-2-phenethyl]-5-(2-fluoro-3-methoxyphenyl)-6-methyluracil radioligands). The filters are dried, and the Millipore filters are monitored for radioactivity using a Cobra II gamma counter (Perkin Elmer Life Sciences). For assays filtered onto the GF/C Unifilter plates, 50 μL scintillation fluid is added to each filter, and radioactivity is monitored using a TopCount NXT. For iodinated radioligands, total radioligand is monitored on a gamma counter, and for the tritiated radioligand, total radioligand is monitored using a Perkin Elmer 1600TR liquid scintillation counter. […]

Structure (SMILES) | Ki
CC1(C)CCN(S(=O)(=O)c2cc(-c3cnc(C(F)(F)F)cc3C#N)c(Cl)cc2CC(=O)O)c2ccccc21 [Example 17-1, [5-Chloro-4-(4-cyano-6-trifluoromethyl-pyridin-3-yl)-2-(4,4-dimethyl-3,4-dihydro-2H-quinoline-1-sulfonyl)-phenyl]-acetic acid] | ≤ 100 nM
CN(c1ccccn1)S(=O)(=O)c1cc(-c2cnc(C(F)(F)F)cc2C#N)c(Cl)cc1OCCCC(=O)O [Example 18-1, 4-[5-chloro-4-(4-cyano-6-trifluoromethyl-pyridin-3-yl)-2-(methyl-pyridin-2-yl-sulfamoyl)-phenoxy]-butyric acid] | ≤ 100 nM
CN(c1ccccn1)S(=O)(=O)c1cc(-c2cnc(C(F)(F)F)cc2C#N)c(Cl)cc1OCCC(=O)O [Example 18-2, 3-[5-chloro-4-(4-cyano-6-trifluoromethyl-pyridin-3-yl)-2-(methyl-pyridin-2-yl-sulfamoyl)-phenoxy]-propionic acid] | ≤ 100 nM
CN(c1ccccn1)S(=O)(=O)c1cc(-c2cnc(C(F)(F)F)cc2C#N)c(Cl)cc1OCC(=O)O [Example 18-3, [5-chloro-4-(4-cyano-6-trifluoromethyl-pyridin-3-yl)-2-(methyl-pyridin-2-yl-sulfamoyl)-phenoxy]-acetic acid] | ≤ 100 nM
CN(c1ccccc1)S(=O)(=O)c1cc(-c2cnc(C(F)(F)F)cc2C#N)c(Cl)cc1OCC(=O)O [Example 19-1, [5-chloro-4-(4-cyano-6-trifluoromethyl-pyridin-3-yl)-2-(methyl-phenyl-sulfamoyl)-phenoxy]-acetic acid] | ≤ 100 nM
